{"source": "ChEMBL document CHEMBL1201862", "about": "“PubChem BioAssay data set” (2004)", "key": {"BJ": {"test_system": "BJ", "experiment": "cytotoxicity toward BJ-TERT fibroblasts, dose response, cell-based, RAS-independent, luminescence (AID 1933)", "assay_type": "functional", "details": "Homo sapiens"}, "[1]": {"experiment": "growth suppression of beta-catenin-knockout colon cells, dose response, cell-based, HCT116, human colon tumor (AID 1045);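 also: HCT116 colon tumor cells with beta catenin knocked out; cells exposed to compound for 60 hours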", "assay_type": "functional"}, "[2]": {"target": "T1, Short transient receptor potential channel 4 (Mus musculus, UniProt Q9QUQ5)", "T1 sequence (Q9QUQ5 whole entry)": "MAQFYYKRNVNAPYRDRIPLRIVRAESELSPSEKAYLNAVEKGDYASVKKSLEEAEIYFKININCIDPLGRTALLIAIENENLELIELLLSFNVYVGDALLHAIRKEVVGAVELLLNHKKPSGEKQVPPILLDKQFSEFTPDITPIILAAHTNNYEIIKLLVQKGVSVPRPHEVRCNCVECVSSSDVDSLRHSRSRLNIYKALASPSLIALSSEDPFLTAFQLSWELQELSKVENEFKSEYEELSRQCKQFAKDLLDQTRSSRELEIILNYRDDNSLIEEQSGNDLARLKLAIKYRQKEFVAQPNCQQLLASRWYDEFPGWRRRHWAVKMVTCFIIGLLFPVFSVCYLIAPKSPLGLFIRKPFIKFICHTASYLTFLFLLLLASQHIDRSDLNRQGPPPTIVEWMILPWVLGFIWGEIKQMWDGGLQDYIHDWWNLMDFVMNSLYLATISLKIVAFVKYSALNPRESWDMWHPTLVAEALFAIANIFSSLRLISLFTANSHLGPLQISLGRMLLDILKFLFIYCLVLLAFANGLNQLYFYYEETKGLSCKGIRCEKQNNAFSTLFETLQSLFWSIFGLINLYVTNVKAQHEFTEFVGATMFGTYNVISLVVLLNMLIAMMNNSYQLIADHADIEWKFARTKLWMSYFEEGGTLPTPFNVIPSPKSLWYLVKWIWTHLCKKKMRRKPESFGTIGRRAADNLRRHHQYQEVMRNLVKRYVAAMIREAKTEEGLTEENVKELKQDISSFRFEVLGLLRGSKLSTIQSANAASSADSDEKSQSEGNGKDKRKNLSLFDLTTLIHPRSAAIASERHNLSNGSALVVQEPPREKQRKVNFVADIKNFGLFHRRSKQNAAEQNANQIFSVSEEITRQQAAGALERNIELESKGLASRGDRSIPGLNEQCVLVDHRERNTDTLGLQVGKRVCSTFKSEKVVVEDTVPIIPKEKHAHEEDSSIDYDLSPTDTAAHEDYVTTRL", "experiment": "mouse TRPC4 channel inhibitors, dose response, cell-based, HEK293 TRPC4/mu-opioid, Fluo-4 calcium (AID 434942);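 also: potency of inhibitors blocking the TRPC4 calcium response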", "assay_type": "functional"}, "Paired box protein Pax-8": {"target": "Paired box protein Pax-8 (Homo sapiens, UniProt Q06710)", "sequence (Q06710 whole entry)": "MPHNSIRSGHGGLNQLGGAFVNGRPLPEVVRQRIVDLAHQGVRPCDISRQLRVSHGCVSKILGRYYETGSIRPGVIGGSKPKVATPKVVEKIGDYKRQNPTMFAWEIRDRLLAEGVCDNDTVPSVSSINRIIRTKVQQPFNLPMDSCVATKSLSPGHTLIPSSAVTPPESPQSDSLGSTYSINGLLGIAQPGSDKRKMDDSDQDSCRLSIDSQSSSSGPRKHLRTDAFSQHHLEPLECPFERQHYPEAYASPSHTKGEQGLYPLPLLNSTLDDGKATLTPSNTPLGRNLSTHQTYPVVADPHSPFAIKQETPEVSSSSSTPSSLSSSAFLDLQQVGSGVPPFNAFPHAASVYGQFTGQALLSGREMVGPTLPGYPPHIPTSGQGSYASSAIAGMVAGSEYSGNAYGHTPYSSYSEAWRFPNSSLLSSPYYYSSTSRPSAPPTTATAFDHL", "experiment": "inhibitors of PAX8-driven TPO luciferase reporter, dose response, RMG-I cells, cherry-pick (AID 687027);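 also: luciferase reporter driven by Pax8 target thyroperoxidase promoter measured by SteadyGlo luminescence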", "assay_type": "functional, cell-based"}, "Hexokinase-1": {"target": "T2, Hexokinase-1 (Homo sapiens, UniProt P19367)", "T2 sequence (P19367 whole entry)": "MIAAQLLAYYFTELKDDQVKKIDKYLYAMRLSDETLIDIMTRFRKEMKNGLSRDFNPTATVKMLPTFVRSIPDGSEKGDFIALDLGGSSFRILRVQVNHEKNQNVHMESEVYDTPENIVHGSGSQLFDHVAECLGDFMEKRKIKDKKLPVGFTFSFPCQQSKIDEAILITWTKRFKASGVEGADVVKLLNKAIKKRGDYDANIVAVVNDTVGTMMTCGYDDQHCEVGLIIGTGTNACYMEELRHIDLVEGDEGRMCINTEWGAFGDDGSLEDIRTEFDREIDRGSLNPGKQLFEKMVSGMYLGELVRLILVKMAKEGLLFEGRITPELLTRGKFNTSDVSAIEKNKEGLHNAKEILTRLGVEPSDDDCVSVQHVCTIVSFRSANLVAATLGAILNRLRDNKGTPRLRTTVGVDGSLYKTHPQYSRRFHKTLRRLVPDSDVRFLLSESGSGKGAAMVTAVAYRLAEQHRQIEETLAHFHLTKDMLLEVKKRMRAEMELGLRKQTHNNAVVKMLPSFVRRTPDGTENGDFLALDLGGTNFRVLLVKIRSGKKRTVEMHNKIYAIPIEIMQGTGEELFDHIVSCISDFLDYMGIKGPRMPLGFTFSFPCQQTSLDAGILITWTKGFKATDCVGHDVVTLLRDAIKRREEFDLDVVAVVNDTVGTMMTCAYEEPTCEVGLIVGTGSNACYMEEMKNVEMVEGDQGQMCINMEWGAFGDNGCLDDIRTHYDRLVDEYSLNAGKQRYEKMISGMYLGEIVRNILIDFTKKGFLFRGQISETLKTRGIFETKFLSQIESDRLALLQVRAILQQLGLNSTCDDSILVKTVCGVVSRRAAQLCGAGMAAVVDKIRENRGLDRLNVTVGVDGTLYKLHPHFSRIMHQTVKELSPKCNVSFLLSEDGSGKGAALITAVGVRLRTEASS", "experiment": "SAR analysis of small molecule inhibitors of hexokinase domain containing I (HKDC1) in the hexokinase 1 selectivity assay. [Related pubchem assays (depositor defined):AID493160, AID493190]", "assay_type": "functional"}, "[3]": {"target": "T3, Sentrin-specific protease 8 (Homo sapiens, UniProt Q96LD8)", "T3 sequence (Q96LD8 whole entry)": "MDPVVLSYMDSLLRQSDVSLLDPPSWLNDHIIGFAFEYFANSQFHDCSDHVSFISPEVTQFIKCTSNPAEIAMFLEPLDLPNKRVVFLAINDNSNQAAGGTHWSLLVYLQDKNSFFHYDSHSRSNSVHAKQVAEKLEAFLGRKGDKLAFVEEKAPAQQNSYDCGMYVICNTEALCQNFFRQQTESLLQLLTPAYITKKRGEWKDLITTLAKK", "assay_type": "functional"}}, "note": "Active and inactive are the calls of the source.", "data": [{"smiles": "Cc1nn(-c2ccccc2)c(Cl)c1CN(C(=O)CCl)c1ccc(Cl)cc1", "values": [{"measurement": "EC50", "setting": "BJ", "value": "707 nM (inconclusive)"}, {"measurement": "EC50", "setting": "[1]", "value": "4110 nM (active)"}, {"measurement": "EC50", "setting": "[2]", "value": "237 nM (active)"}, {"measurement": "AC50", "setting": "Paired box protein Pax-8", "value": "3190 nM (active)"}]}, {"smiles": "O=C(O)CSc1cc(NS(=O)(=O)c2ccc(Cl)cc2)c2ccccc2c1O", "values": [{"measurement": "IC50", "setting": "Hexokinase-1", "value": "> 80000 nM (inactive)"}]}, {"smiles": "COc1ccccc1N1C(=O)Cc2ccccc2C1=O", "values": [{"measurement": "IC50", "setting": "[3]", "value": "2040 nM (active)"}]}]}
